Reference: patent publication US20250129095A1, “ANNULATED 2-AMINO-3-CYANO THIOPHENES AND DERIVATIVES FOR THE TREATMENT OF CANCER” (Boehringer Ingelheim Int'l GmbH Corp., priority 2021, published 2025)

How the values were obtained:
[1] = Metabolic (microsomal) stability assay, human liver microsomes (HLM); type: in vitro ADME; conditions: 1 μM, predicted clearance as percent of liver blood flow
Method: The metabolic degradation of the test compound is assayed at 37° C. with pooled liver microsomes (mouse (MLM), rat (RLM) or human (HLM)). The final incubation volume of 48 μL per time point contains TRIS buffer (pH 7.5; 0.1 M), magnesium chloride (6.5 mM), microsomal protein (0.5 mg/mL for mouse/rat, 1 mg/mL for human specimens) and the test compound at a final concentration of 1 μM. Following a short preincubation period at 37° C., the reactions are initiated by addition of 12 μL beta-nicotinamide adenine dinucleotide phosphate, reduced form (NADPH, 10 mM) and terminated by transferring an aliquot into solvent after different time points (0, 5, 15, 30, 60 min). Additionally, the NADPH-independent degradation is monitored in incubations without NADPH, terminated at the last time point by addition of acetonitrile. The quenched incubations are pelleted by centrifugation (4,000 rpm, 15 min). An aliquot of the supernatant is assayed by LC-MS/MS to quantify the concentration of parent compound in the individual samples.
In vitro intrinsic clearance (CLint, in vitro) is calculated from the time course of the disappearance of the test drug during the microsomal incubation. Each plot is fitted to the first-order elimination rate constant as C(t)=C0*exp(−ke*t), where C(t) and C0 are the concentration of unchanged test drug at incubation time t and that at preincubation and ke is the disappearance rate constant of the unchanged drug. Subsequently, CLint, in vitro (μL min^−1·amount protein) values are converted to predicted CLint, in vitro (mL min^−1·kg^−1) from incubation parameters according to the equation CLint, in vitro=CLint, in vitro×(incubation volume (ml)/amount protein (mg))×(amount protein (mg)/g liver tissue)×(liver weight/body wt.). For better across species comparison the predicted clearance is expressed as percent of the liver blood flow [% QH](mL min^−1·kg^−1) in the individual species. In general, high stability (corresponding to low % QH) of the compounds across species is desired.

KRAS (WT)::SOS1 = biological target: T1, KRAS (WT)::SOS1 (Homo sapiens, UniProt P01116, C118S); experiment: KRAS::SOS1 AlphaScreen binding assay, KRAS WT
T1 construct: KRAS (WT) 1-169, N-terminal 6His-tag for purification, cleaved off; 6His-tag (N, cleaved yes); TEV cleavage site; made in house
Source text: This assay can be used to examine the potency with which compounds according to the invention binding to (mutated) KRAS inhibit the protein-protein interaction between SOS1 and (mutated) KRAS e.g., KRAS WT, KRAS G12C, KRAS G12D, KRAS G12V, KRAS G13D. […] Low IC50 values in this assay setting are indicative of strong inhibition of protein-protein interaction between SOS1 and KRAS:
These assays measure the inhibitory effect of compounds on KRAS mutant protein-protein interactions using the Alpha Screen technology by Perkin Elmer
The following (mutant) enzyme forms of KRAS and interacting proteins are used in these assays at the given concentrations: • KRAS (G12D) 1-169, N-terminal 6His-tag, C-terminal avi-tag (Xtal BioStructures, Inc.); final assay concentration 10 nM and SOS1 564-1049, N-terminal 229 GST-tag, TEV cleavage site (Viva Biotech Ltd); final assay concentration 5 nM; • KRAS (G12C) 1-169, N-terminal 6His-tag for purification, cleaved off, C-terminal avi-tag, biotinylated, mutations: C51S, C80L, C118S (in house); final assay concentration 7.5 nM and SOS1 564-1049, N-terminal 229 GST-tag, TEV cleavage site (Viva Biotech Ltd); final assay concentration 5 nM; • KRAS (G12V) 1-169, N-terminal 6His-tag for purification, cleaved off, C-terminal avi-tag, biotinylated, TEV cleavage site, mutation: C118S, GDP loaded (in house); final assay concentration 10 nM and SOS1 564-1049, N-terminal 229 GST-tag, TEV cleavage site (Viva Biotech Ltd); final assay concentration 10 nM; • KRAS (G13D) 1-169, N-terminal 6His-tag for purification, cleaved off, C-terminal avi-tag, biotinylated, TEV cleavage site, mutation: C118S, GDP loaded (in house); final assay concentration 10 nM and SOS1 564-1049, N-terminal 229 GST-tag, TEV cleavage site (Viva Biotech Ltd); final assay concentration 10 nM; • KRAS (WT) 1-169, N-terminal 6His-tag for purification, cleaved off, C-terminal avi-tag, biotinylated, TEV cleavage site, mutation: C118S, GDP loaded (in house); final assay concentration 10 nM and SOS1 564-1049, N-terminal 229 GST-tag, TEV cleavage site (Viva Biotech Ltd); final assay concentration 10 nM.
Test compounds dissolved in DMSO are dispensed onto assay plates (Proxiplate 384 PLUS, white, PerkinElmer; 6008289) using an Access Labcyte Workstation with the Labcyte Echo 55×. For the chosen highest assay concentration of 100 μM, 150 nL of compound solution are transferred from a 10 mM DMSO compound stock solution. A series of eleven fivefold dilutions per compound are transferred to the assay plate, compound dilutions are tested in duplicates. DMSO are added as backfill to a total volume of 150 nL.
The assays run on a fully automated robotic system in a darkened room below 100 Lux. To 150 nl of compound dilution 10 μl of a mix including KRAS mutant protein, SOS1 (final assay concentrations see above) and GDP nucleotide (Sigma G7127; final assay concentration 10 μM) in assay buffer (1×PBS, 0.1% BSA, 0.05% Tween 20) are added into columns 1-24.
After 30 minutes incubation time 5 μl of Alpha Screen bead mix in assay buffer are added into columns 1-23. Bead mix consists of AlphaLISA Glutathione Acceptor Beads (PerkinElmer, Cat No AL109) and AlphaScreen Streptavidin Donor Beads (PerkinElmer Cat No 6760002) in assay buffer at a final assay concentration of 10 μg/ml each.
Plates are kept at room temperature in a darkened incubator. After an additional 60 minutes incubation time the signal is measured in a PerkinElmer Envision HTS Multilabel Reader using the AlphaScreen specs from PerkinElmer.
Each plate contains up to 16 wells of a negative control depending on the dilution procedure (platewise or serial) (DMSO instead of test compound; with KRAS mutant::SOS1 GDP mix and bead mix; column 23) and 16wells of a positive control (DMSO instead of test compound; with KRAS mutant::SOS1 GDP mix w/o bead mix; column 24).
As internal control known inhibitors of KRAS mutant::SOS1 interaction can be measured on each compound plate. […]

T1 sequence (P01116 1-169 isoform P01116-2 C118S): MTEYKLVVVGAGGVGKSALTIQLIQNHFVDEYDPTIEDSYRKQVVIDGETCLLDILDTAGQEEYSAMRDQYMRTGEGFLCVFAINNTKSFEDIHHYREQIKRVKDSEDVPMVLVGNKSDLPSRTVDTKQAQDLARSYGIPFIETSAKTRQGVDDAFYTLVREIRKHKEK

| HLM QH [%] [1] | IC50 (KRAS (WT)::SOS1) | Compound |
| --- | --- | --- |
| <24% |  | C[C@H](Oc1cc(O[C@H]2CNC(C)(C)C2)nc(-c2noc3c2CCC[C@@]32CCCc3sc(N)c(C#N)c32)n1)[C@@H]1CCCN1C (single isomer, unassigned) [II-8] |
| 44% | 4 nM | C[C@H](Oc1cc(Oc2nccs2)nc(-c2onc3c2CCC[C@@]32CCCc3sc(N)c(C#N)c32)n1)[C@@H]1CCCN1C [Example I-1] |
| 70% | 4 nM | C[C@H](Oc1cc(Oc2cccnc2)nc(-c2onc3c2CCC[C@@]32CCCc3sc(N)c(C#N)c32)n1)[C@@H]1CCCN1C [Example I-2] |
| 69% | 2 nM | C[C@H](Oc1cc(Oc2cncnc2)nc(-c2onc3c2CCC[C@@]32CCCc3sc(N)c(C#N)c32)n1)[C@@H]1CCCN1C [Example I-3] |
| 26% |  | C[C@H](Oc1cc(N[C@H]2CCOC2)nc(-c2onc3c2CCC[C@@]32CCCc3sc(N)c(C#N)c32)n1)[C@@H]1CCCN1C [Example I-4] |
| <24% |  | COC[C@H](C)Nc1cc(O[C@@H](C)[C@@H]2CCCN2C)nc(-c2onc3c2CCC[C@@]32CCCc3sc(N)c(C#N)c32)n1 [Example I-5] |
| <24% |  | C[C@H](Oc1cc(Nc2ccccn2)nc(-c2onc3c2CCC[C@@]32CCCc3sc(N)c(C#N)c32)n1)[C@@H]1CCCN1C [Example I-6] |
| 38% |  | C[C@H](Oc1cc(Sc2ncccn2)nc(-c2onc3c2CCC[C@@]32CCCc3sc(N)c(C#N)c32)n1)[C@@H]1CCCN1C [Example I-7] |
| 30% |  | C[C@H](Oc1cc(OCC2(N(C)C)COC2)nc(-c2onc3c2CCC[C@@]32CCCc3sc(N)c(C#N)c32)n1)[C@@H]1CCCN1C [Example I-8] |
| <24% | 3 nM | C[C@H](Oc1cc(Oc2cncnc2)nc(-c2noc3c2CCC[C@@]32CCCc3sc(N)c(C#N)c32)n1)[C@@H]1CCCN1C [II-1] |
| 46% |  | C[C@H](Oc1cc(Oc2nccs2)nc(-c2noc3c2CCC[C@@]32CCCc3sc(N)c(C#N)c32)n1)[C@@H]1CCCN1C [II-2] |
| 70% |  | C[C@H](Oc1cc(Oc2ccon2)nc(-c2noc3c2CCC[C@@]32CCCc3sc(N)c(C#N)c32)n1)[C@@H]1CCCN1C [II-3] |
| 59% |  | C[C@H](Oc1cc(O[C@H]2CCOC2)nc(-c2noc3c2CCC[C@@]32CCCc3sc(N)c(C#N)c32)n1)[C@@H]1CCCN1C [II-4] |
| 31% |  | COCCOc1cc(O[C@@H](C)[C@@H]2CCCN2C)nc(-c2noc3c2CCC[C@@]32CCCc3sc(N)c(C#N)c32)n1 [II-5] |
| 40% |  | C[C@H](Oc1cc(OCCO)nc(-c2noc3c2CCC[C@@]32CCCc3sc(N)c(C#N)c32)n1)[C@@H]1CCCN1C [II-6] |
| 72% |  | C[C@H](Oc1cc(Oc2cnccn2)nc(-c2noc3c2CCC[C@@]32CCCc3sc(N)c(C#N)c32)n1)[C@@H]1CCCN1C [II-7] |
| <24% | 2 nM | C[C@H](Oc1cc(O[C@@H]2CNC2(C)C)nc(-c2noc3c2CCC[C@@]32CCCc3sc(N)c(C#N)c32)n1)[C@@H]1CCCN1C [II-9] |

| HLM QH [%] [1] | IC50 (KRAS (WT)::SOS1) | Compound |
| --- | --- | --- |
| <24% |  | C[C@H](Oc1cc(N(C)C)nc(-c2noc3c2CCC[C@@]32CCCc3sc(N)c(C#N)c32)n1)[C@@H]1CCCN1C [II-10] |
| 36% |  | C[C@H](Oc1cc(NCC2COC2)nc(-c2noc3c2CCC[C@@]32CCCc3sc(N)c(C#N)c32)n1)[C@@H]1CCCN1C [II-11] |
| <24% |  | C[C@H](Oc1cc(Nc2nccs2)nc(-c2noc3c2CCC[C@@]32CCCc3sc(N)c(C#N)c32)n1)[C@@H]1CCCN1C [II-12] |
| <24% | 7 nM | C[C@H](Oc1cc(Nc2ncco2)nc(-c2noc3c2CCC[C@@]32CCCc3sc(N)c(C#N)c32)n1)[C@@H]1CCCN1C [II-13] |
| <24% | 10 nM | C[C@H](Oc1cc(Nc2cnccn2)nc(-c2noc3c2CCC[C@@]32CCCc3sc(N)c(C#N)c32)n1)[C@@H]1CCCN1C [II-14] |
| <24% |  | C[C@H](Oc1cc(Nc2ccncn2)nc(-c2noc3c2CCC[C@@]32CCCc3sc(N)c(C#N)c32)n1)[C@@H]1CCCN1C [II-15] |
| 42% |  | C[C@H](Oc1cc(Nc2ccccn2)nc(-c2noc3c2CCC[C@@]32CCCc3sc(N)c(C#N)c32)n1)[C@@H]1CCCN1C [II-16] |
| <24% | 8 nM | C[C@H](Oc1cc(Nc2ncccn2)nc(-c2noc3c2CCC[C@@]32CCCc3sc(N)c(C#N)c32)n1)[C@@H]1CCCN1C [II-17] |
| 41% |  | C[C@H](Oc1cc(Nc2cccnn2)nc(-c2noc3c2CCC[C@@]32CCCc3sc(N)c(C#N)c32)n1)[C@@H]1CCCN1C [II-18] |
| <24% |  | C[C@H](Oc1cc(O[C@H]2CN(C)C(C)(C)C2)nc(-c2noc3c2CCC[C@@]32CCCc3sc(N)c(C#N)c32)n1)[C@@H]1CCCN1C [II-19] |
| <24% |  | C[C@H](Oc1cc(N(C)CCN(C)C)nc(-c2noc3c2CCC[C@@]32CCCc3sc(N)c(C#N)c32)n1)[C@@H]1CCCN1C [II-20] |
| 48% |  | C[C@H](Oc1cc(OCC2(N(C)C)CC2)nc(-c2noc3c2CCC[C@@]32CCCc3sc(N)c(C#N)c32)n1)[C@@H]1CCCN1C [II-21] |
| 53% | 2 nM | C[C@H](Oc1cc(OCC2(N(C)C)COC2)nc(-c2noc3c2CCC[C@@]32CCCc3sc(N)c(C#N)c32)n1)[C@@H]1CCCN1C [II-22] |
| 46% | 4 nM | COc1c(OCC2(N(C)C)COC2)nc(-c2noc3c2CCC[C@@]32CCCc3sc(N)c(C#N)c32)nc1O[C@@H](C)[C@@H]1CCCN1C [II-25] |
| 26% | 10 nM | C[C@H]1CN(C)CCCN1c1cc(O[C@@H]2CNC2(C)C)nc(-c2noc3c2CCC[C@@]32CCCc3sc(N)c(C#N)c32)n1 [II-28] |
| 28% | 4 nM | C[C@H](Oc1cc(O[C@@H]2CNC[C@@H]2F)nc(-c2noc3c2CCC[C@@]32CCCc3sc(N)c(C#N)c32)n1)[C@@H]1CCCN1C [II-29] |
